Reference: the supplement of paper PMC10307832

Assays:
Assay in all cases: relative viability (nuclei count vs DMSO), 5 days (fraction); higher = more cells survive
[1] = compound: O=S(=O)(c1ccccc1)N(CC(F)(F)F)c1ccc(C(O)(C(F)(F)F)C(F)(F)F)cc1 + CC(=O)c1c(C)c2cnc(Nc3ccc(N4CCNCC4)cn3)nc2n(C2CCCC2)c1=O [Palbociclib] (partner 0.5 µM)
In short: (§1)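 Lung cancer cell lines were pin-tool dosed in 1536-well plates on the day after seeding, with either a lone drug or a fixed anchor-drug dose plus five library-drug doses (not always all listed) in √10 steps. Nuclei were counted on 4× images after 5 days. Relative viability is the ratio of treated-well to vehicle-well nuclei counts, with each value a median of duplicate plates.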

RO-3306 + Trametinib = compound: C1=CC2=C(C=CC(=C2)C=C3C(=O)NC(=NCC4=CC=CS4)S3)N=C1 [RO-3306] + CC(=O)Nc1cccc(-n2c(=O)n(C3CC3)c(=O)c3c(Nc4ccc(I)cc4F)n(C)c(=O)c(C)c32)c1 [Trametinib] (partner 0.02 µM)
In short: as §1

[2] = compound: O=S(=O)(c1ccccc1)N(CC(F)(F)F)c1ccc(C(O)(C(F)(F)F)C(F)(F)F)cc1 + CC(=O)Nc1cccc(-n2c(=O)n(C3CC3)c(=O)c3c(Nc4ccc(I)cc4F)n(C)c(=O)c(C)c32)c1 [Trametinib] (partner 0.02 µM)
In short: as §1

[3] = compound: O=S(=O)(c1ccccc1)N(CC(F)(F)F)c1ccc(C(O)(C(F)(F)F)C(F)(F)F)cc1 + Cc1nc(Nc2ncc(C(=O)Nc3c(C)cccc3Cl)s2)cc(N2CCN(CCO)CC2)n1 [Dasatinib] (partner 0.075 µM)
In short: as §1

RO-3306 + Lapatinib = compound: C1=CC2=C(C=CC(=C2)C=C3C(=O)NC(=NCC4=CC=CS4)S3)N=C1 [RO-3306] + CS(=O)(=O)CCNCc1ccc(-c2ccc3ncnc(Nc4ccc(OCc5cccc(F)c5)c(Cl)c4)c3c2)o1 [Lapatinib] (partner 2 µM)
In short: as §1

Row | Cell Line | relative viability ([1]; first compound 0.8 µM) | relative viability ([1]; first compound 2.53 µM) | relative viability ([1]; first compound 8 µM) | relative viability (RO-3306 + Trametinib; first compound 0.01 µM) | relative viability (RO-3306 + Trametinib; first compound 0.03162 µM) | relative viability (RO-3306 + Trametinib; first compound 0.1 µM) | relative viability (RO-3306 + Trametinib; first compound 0.3162 µM) | relative viability (RO-3306 + Trametinib; first compound 1 µM) | relative viability ([2]; first compound 0.8 µM) | relative viability ([2]; first compound 2.53 µM) | relative viability ([2]; first compound 8 µM) | relative viability ([3]; first compound 0.8 µM) | relative viability ([3]; first compound 2.53 µM) | relative viability ([3]; first compound 8 µM) | relative viability (RO-3306 + Lapatinib; first compound 0.01 µM) | relative viability (RO-3306 + Lapatinib; first compound 0.1 µM) | relative viability (RO-3306 + Lapatinib; first compound 0.3162 µM) | relative viability (RO-3306 + Lapatinib; first compound 1 µM) | relative viability (RO-3306 + Lapatinib; first compound 0.03162 µM)
1 | COR-L23 | 0.332 | 0.269 | 0.285 | 0.656 | 0.374 | 0.558 | 0.532 | 0.656 | 0.657 | 0.583 | 0.539 | 0.591 | 0.461 | 0.5 | 0.708 | 0.942 | 1.06 | 1.18 | –
2 | NCI-H1915 | 0.46 | 0.577 | 0.525 | 0.319 | 0.276 | 0.297 | 0.32 | 0.292 | 0.303 | 0.261 | 0.255 | 0.284 | 0.276 | 0.291 | 1.07 | 0.969 | 0.945 | 0.446 | 0.973
3 | NCI-H1703 | – | – | – | – | – | – | – | – | – | – | – | – | – | – | 1.25 | 1.03 | 0.831 | 1.6 | 0.858
4 | NCI-H727 | 0.621 | 0.623 | 0.618 | 0.39 | 0.388 | 0.355 | 0.352 | 0.409 | 0.358 | 0.368 | 0.375 | 0.408 | 0.302 | 0.325 | 0.869 | 0.789 | 0.845 | 0.972 | 0.647
5 | LC-2-ad | 0.53 | 0.501 | 0.422 | 0.961 | 0.848 | 0.945 | 0.908 | 0.852 | 0.881 | 0.884 | 0.758 | 0.655 | 0.525 | 0.627 | 0.949 | 0.868 | 0.948 | 0.883 | 0.979
6 | NCI-H2009 | 0.174 | 0.238 | 0.223 | 0.283 | 0.272 | 0.247 | 0.273 | 0.254 | 0.259 | 0.246 | 0.289 | 0.241 | 0.249 | 0.302 | 0.805 | 0.867 | 1.07 | 0.872 | 0.887
7 | A-427 | 0.449 | 0.454 | 0.476 | 0.782 | 0.802 | 0.679 | 0.758 | 0.669 | 0.722 | 0.645 | 0.682 | 0.737 | 0.653 | 0.846 | 1.08 | 1.05 | 1.03 | 0.448 | 0.986
8 | SK-MES-1 | 0.351 | 0.354 | 0.277 | 0.519 | 0.537 | 0.483 | 0.491 | 0.562 | 0.546 | 0.573 | 0.59 | 0.318 | 0.332 | 0.255 | 0.449 | 0.444 | 0.505 | 0.471 | 0.472
9 | NCI-H1734 | 0.348 | 0.363 | 0.326 | 0.757 | 0.607 | 0.61 | 0.685 | 0.628 | 0.711 | 0.65 | 0.664 | 0.553 | 0.464 | 0.462 | 1.06 | 1.03 | 1.07 | 0.808 | 0.834
